Reference: patent US20250194601A1, “PYRIDAZINONE COMPOUND OR SALT THEREOF AND PEST CONTROL AGENT CONTAINING IT” (ISHIHARA SANGYO KAISHA, LTD., priority 2022, published 2025)

Legend:
Format in all cases: in vivo
[1] = tested on: green peach aphid (Myzus persicae); experiment: whole plant or invertebrate; settings: in Raphanus sativus, foliar, nymphs, 5th day after the application
Excerpt: Test on effect against green peach aphid (Myzus persicae)
(§1) A Japanese radish leaf was inserted in a test tube in which water was put, and 5 adults of green peach aphid were released on the leaf. On the next day, the adults were removed, and the number of nymphs parasitic on the leaf was counted as the number of tested nymphs, and then the leaf was dipped in a chemical solution of a test compound at a concentration of 200 ppm or 50 ppm. After the chemical solution dried in air, the leaf was left in a constant temperature chamber with lighting at 25° C. On the 5th day after the application, the number of dead nymphs was counted, and the mortality (%) was calculated by the following formula. Nymphs that dropped from the leaf or nymphs that were moribund were counted as dead nymphs.
Mortality (%)=[(Number of dead nymphs)/(number of tested nymphs)]x100

[2] = tested on: brown planthopper (Nilaparvata luqens); experiment: whole plant or invertebrate; settings: in Oryza sativa, second to third instar nymphs, 5th day after release
Excerpt: (§2) Test on effect against brown planthopper (Nilaparvata luqens) Rice seedlings were dipped in a chemical solution of a test compound at a concentration of 200 ppm or 50 ppm. After the chemical solution dried in air, the root was wrapped with wet adsorbent cotton, and the seedlings were put into a test tube. About 10 second to third instar nymphs of brown planthopper were released, the test tube was covered with a gauze, and the test tube was left in a constant temperature chamber with lighting at 25° C. On the 5th day after release, the number of dead nymphs was counted, and the mortality (%) was calculated by the following formula.
Mortality (%)=[(number of dead nymphs)/(number of released nymphs)]×100

[3] = tested on: brown planthopper (Nilaparvata luqens); experiment: Comparative Test Example 1: brown planthopper, rice seedling dip; settings: 5th day after release; for mortality at 50 ppm: Active ingredient concentration 50 ppm; for mortality at 200 ppm: Active ingredient concentration 200 ppm
Description: as §2, with “Rice” for “Test on effect against brown planthopper (Nilaparvata luqens) Rice”, “planthopper (Nilaparvata luqens)were” for “planthopper were”
The test compounds are Compound No. 2-12 as the compound of the present invention and the following Comparative Compounds (A) and (B) as the comparative compounds.

[4] = tested on: green peach aphid (Myzus persicae); experiment: Comparative Test Example 2: green peach aphid, radish leaf dip; settings: foliar, 5th day after the application; for mortality at 50 ppm: Active ingredient concentration 50 ppm; for mortality at 200 ppm: Active ingredient concentration 200 ppm
Excerpt: as §1, with “aphid (Myzus persicae)” for “aphid”, “[…].” for “25° C.”
The test compounds were the same as in Comparative Test Example 1.

[5] = tested on: two-spotted spider mite (Tetranychus urticae); experiment: Test Example 3: effects against two-spotted spider mite, kidney bean leaf dip; settings: foliar, adults, 3rd day after the application
Description: Test on effects against two-spotted spider mite (Tetranychus urticae) In a chemical solution of a test compound at a concentration of 800 ppm, 200 ppm or 50 ppm, a leaf of kidney bean on which about 20 adults of two-spotted spider mite had been released, was dipped. After the chemical solution dried in air, the leaf was left in a constant temperature chamber with lighting at 25° C. On the 3rd day after the application, the number of dead adults was counted, and the mortality (%) was calculated by the following formula. Adults that dropped from the leaf or adults that were moribund were counted as dead adults.

Structure (SMILES)	mortality at 200 ppm [1] [%]	mortality at 200 ppm [2] [%]	mortality at 50 ppm [3] [%]	mortality at 200 ppm [3] [%]	mortality at 50 ppm [4] [%]	mortality at 200 ppm [4] [%]	mortality at 800 ppm [5] [%]	mortality at 200 ppm [5] [%]
CCc1nn(-c2ncc(C(F)(F)F)cc2Cl)c(=O)c(-n2ccc(C(F)(F)F)n2)c1O [1-57, 2-[3-chloro-5-(trifluoromethyl)pyridin-2-yl]-6-ethyl-5-hydroxy-4-[3-(trifluoromethyl)-1 H-pyrazol-1-yl]pyridazin-3(2H)-one]	≥ 90	≥ 90	–	–	–	–	–	–
CCc1nn(-c2ccc(C(F)(F)F)cc2Cl)c(=O)c(-n2ccc(C(F)(F)F)n2)c1O [2-12]	≥ 90	≥ 90	100	100	100	100	≥ 80	–
CCc1nn(-c2c(Cl)cc(C(F)(F)F)cc2Cl)c(=O)c(-n2ccc(C(F)(F)F)n2)c1O [2-97, 2-[2,6-dichloro-4-(trifluoromethyl)phenyl]-6-ethyl-5-hydroxy-4-[3-(trifluoromethyl)-1 H-pyrazol-1-yl]pyridazin-3(2H)-one]	≥ 90	≥ 90	–	–	–	–	≥ 80	–
CCc1nn(-c2c(C)cc(S(=O)(=O)C(F)(F)F)cc2C)c(=O)c(-n2ccc(Cl)n2)c1O [2-191, 4-(3-chloro-1 H-pyrazol-1-yl)-2-{2,6-dimethyl-4-[(trifluoromethyl)sulfonyl]phenyl}-6-ethyl-5-hydroxypyridazin-3(2H)-one]	≥ 90	≥ 90	–	–	–	–	–	–
COCc1nn(-c2c(C)cc(C(F)(F)F)cc2C)c(=O)c(-n2ccc(Cl)n2)c1O [2-444, 4-(3-chloro-1 H-pyrazol-1-yl)-2-[2,6-dimethyl-4-(trifluoromethyl)phenyl]-5-hydroxy-6-(methoxymethyl)pyridazin-3(2H)-one]	≥ 90	≥ 90	–	–	–	–	–	–
Cc1ccn(-c2c(O)c(C(F)(F)F)nn(-c3c(C)cc(C(F)(F)F)cc3C)c2=O)n1 [2-516, 2-[2,6-dimethyl-4-(trifluoromethyl)phenyl]-5-hydroxy-4-(3-methyl-1 H-pyrazol-1-yl)-6-(trifluoromethyl)pyridazin-3(2H)-one]	≥ 90	≥ 90	–	–	–	–	–	≥ 80
CCc1nn(-c2c(C)cc(C(F)(F)F)cc2C)c(=O)c(-n2cnc([N+](=O)[O-])n2)c1O [6-65, 2-[2,6-dimethyl-4-(trifluoromethyl)phenyl]-6-ethyl-5-hydroxy-4-(3-nitro-1 H-1,2,4-triazol-1-yl)pyridazin-3(2H)-one]	≥ 90	≥ 90	–	–	–	–	–	–
CCc1ncn(-c2c(O)c(C(C)C)nn(-c3c(C)cc(C(F)(F)F)cc3C)c2=O)n1 [6-134, 2-[2,6-dimethyl-4-(trifluoromethyl)phenyl]-4-(3-ethyl-1 H-1,2,4-triazol-1-yl)-5-hydroxy-6-isopropylpyridazin-3(2H)-one]	≥ 90	≥ 90	–	–	–	–	–	≥ 80
CCc1nn(-c2c(C)cc(C#N)cc2C)c(=O)c(-n2cnc(Cl)n2)c1O [6-136, 4-[5-(3-chloro-1 H-1,2,4-triazol-1-yl)-3-ethyl-4-hydroxy-6-oxopyridazin-1(6H)-yl]-3,5-dimethylbenzonitrile]	≥ 90	≥ 90	–	–	–	–	–	–
CCc1nn(C)c(=O)c(-n2ccc(C(F)(F)F)n2)c1O [Comparative compound (A)]	–	–	0	0	0	20	–	–
CCc1nn(-c2ccc(C(F)(F)F)cc2Cl)c(=O)c(-c2ccc(F)cc2)c1O [Comparative compound (B)]	–	–	0	0	0	30	–	–
